The target of data set [1] is wild-type BRAF enzyme (Homo sapiens (Human), UniProt P15056). Nature of the data set: RAF inhibition assay (TB-PMAP2K1 kit), wild-type BRAF. The format is biochemical. The following applies: FLUORESCEIN-MAP2K1 substrate, 60 min reaction. The method, then:
Assay protocol: the inhibitory effects of the compounds of the present invention on the wild-type BRAF enzyme, mutant CRAF enzyme (RAF1 Y340D and Y341D) and mutant BRAF enzyme (BRAF-V600E) activity were determined according to the instructions of the TB-PMAP2K1 (PSER217/221) kit (ThermoFisher). Different RAF enzymes and substrates (FLUORESCEIN-MAP2K1) were pre-incubated with test compounds at various concentrations at room temperature for 15 min, and then the adenosine triphosphate (ATP) was added to initiate the reaction. After incubation at room temperature for 60 min, EDTA and Tb-labeled anti-pMAP2K1 [pS217/221] antibody solutions were added, and incubation was performed at room temperature for 60 min before the detection of the fluorescence values of the compounds in each group. With the vehicle group (DMSO) as the negative control and the buffer group (without RAF enzyme) as the blank control, the relative inhibitory activity percentage (i.e., the inhibition rate) of a compound at different concentrations was calculated according to the following formula:
Relative inhibitory activity percentage=1−(Compound group at various concentrations−blank control)/(negative control−blank control)*100%
The relative inhibitory activity percentages of the compounds at different concentrations were plotted against the compound concentrations, the curve was fitted according to a four-parameter model, and the IC50 value was calculated according to the following formula:
y=min+(max−min)/(1+(x/IC50)^(−Hillslope))
wherein y is the relative inhibitory activity percentage, max and min are respectively the maximum and minimum values of the fitted curve, x is the logarithm concentration of the compound, and Hillslope is the slope of the curve.

Data set [2] deals with human hepatocellular carcinoma cell HepG2 (NRAS-Q61K mutation). Nature of the data set: Cancer cell proliferation inhibition assay, HepG2. It is filed as cell-based. The conditions noted are these: 72 h incubation, Cell Titer Glo. In short, it runs like this:
(§1)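 Cells exposed to compound at 10 to 100000 nM (nine concentrations) for 72 h. Proliferation measured as cellular ATP by CellTiter-Glo luminescence, with IC50 derived per cell line.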
(In general: In ATP-based viability assays light output follows the ATP content of the culture.)

Data set [3] has as its system human melanoma cell A375 (BRAF-V600E mutation). As to the kind of experiment: Cancer cell proliferation inhibition assay, A375. The conditions noted are these: A-375, 72 h incubation, Cell Titer Glo. The format is cell-based. In short, it runs like this:
as §1

Data set [4] can be described thus: Pharmacokinetic test in Balb/c mice. It is filed as in vivo. The method, then:
The compounds were administered to female Balb/c mice by gavage (PO) to investigate the pharmacokinetic profile.
Compound 1 of the present invention and HM95573 (prepared according to Example 116 in CN104039798B) were administered via PO; the administration dosage was 10 mg/kg, and the administration vehicle was a 20% aqueous solution of hydroxypropyl-β-cyclodextrin. Blood samples were collected before the administration (0 h) and at 0.25, 0.5, 1, 2, 4, 6, 8, 24, 48, and 72 h after the administration; 50-70 μL of blood was drawn from the orbit and spotted on Whatman 903 card, which was air-dried at room temperature for testing. After the testing, the samples were placed in a sealed dry box and stored at −80° C. (DBS samples). The DBS samples were punched with a 6 mm punch, then 80 μL of 50% acetonitrile-water was added and shaken (800 rpm, 10 min), followed by sonication for 10 min, then 350 μL of acetonitrile containing internal standard was added and shaken (700 rpm, 10 min). After sonication for 10 min, the samples were centrifuged at 4000 rpm and 4° C. for 10 min, and the supernatant was collected for LC-MS/MS analysis. The pharmacokinetic parameters were calculated using the WinNonlin 6.3 software and employing a non-compartmental model, and the results are shown in Table 6.

Data set [5] can be described thus: Pharmacokinetic test in Beagle dogs. It is filed as in vivo. On the procedure: The compounds were administered to male Beagle dogs by gavage (PO) to investigate the pharmacokinetic profile.
Compound 1 of the present invention and HM95573 were administered via PO; the administration dosage was 2.5 mg/kg, and the solvent was a 20% aqueous solution of hydroxypropyl-β-cyclodextrin. Blood samples were collected before the administration (0 h) and at 0.25, 0.5, 1, 2, 4, 6, 8, 24, 48, and 72 hours after the administration, and 1 mL blood was collected from the limbs vein and placed in a K2-EDTA anticoagulation tube. After centrifugation at 4000 rpm for 5 min (4° C.), the plasma was separated and stored at −80° C. for testing. The plasma samples were processed by precipitating proteins, and then subjected to LC-MS/MS analysis. The pharmacokinetic parameters were calculated using the WinNonlin 6.3 software and employing a non-compartmental model, and the results are shown in Table 7.

Where [6] appears, read: mouse, whole blood (dried blood spots), female Balb/c mice, PO, 10 mg/kg, DBS samples.
[7] abbreviates: dog, male Beagle dogs, PO, 2.5 mg/kg, plasma.

Structures are written as SMILES.

Chain of wild-type BRAF enzyme (P15056 whole entry): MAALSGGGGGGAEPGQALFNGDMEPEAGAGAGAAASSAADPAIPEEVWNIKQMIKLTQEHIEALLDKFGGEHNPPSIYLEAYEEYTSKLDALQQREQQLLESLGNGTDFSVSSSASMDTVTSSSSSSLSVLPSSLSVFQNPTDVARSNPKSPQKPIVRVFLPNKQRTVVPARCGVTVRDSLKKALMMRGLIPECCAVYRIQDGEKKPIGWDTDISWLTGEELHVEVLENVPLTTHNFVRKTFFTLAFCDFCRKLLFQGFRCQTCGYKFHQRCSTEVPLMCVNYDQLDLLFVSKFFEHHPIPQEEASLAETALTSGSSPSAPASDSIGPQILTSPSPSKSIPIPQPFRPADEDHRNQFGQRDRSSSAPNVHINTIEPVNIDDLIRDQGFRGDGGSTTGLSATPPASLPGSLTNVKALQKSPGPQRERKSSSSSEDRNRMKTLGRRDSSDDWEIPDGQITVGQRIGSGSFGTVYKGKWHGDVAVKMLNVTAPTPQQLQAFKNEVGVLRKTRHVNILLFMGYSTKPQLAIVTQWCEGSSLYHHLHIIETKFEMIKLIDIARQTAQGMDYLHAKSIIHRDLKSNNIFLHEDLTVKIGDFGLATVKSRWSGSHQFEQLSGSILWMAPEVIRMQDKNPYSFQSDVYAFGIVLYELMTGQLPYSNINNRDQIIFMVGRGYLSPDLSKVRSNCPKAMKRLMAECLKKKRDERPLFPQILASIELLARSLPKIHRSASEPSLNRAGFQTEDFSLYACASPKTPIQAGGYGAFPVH

Consider `Cc1ccc2c(Nc3cccc(Cl)c3F)nccc2c1NC(=O)c1cccc2c(N)ncnc12` [Compound 1, 4-amino-N-(1-((3-chloro-2-fluorophenyl)amino)-6-methylisoquinolin-5-yl)quinazoline-8-carboxamide], for which the 50% inhibitory concentration (IC50) in data set [1] is 18.7 ± 2.71 nM; in data set [2] it was 71.3 ± 5.5 nM; in data set [3] it was 29.3 ± 2.3 nM. In data set [4] (mice after PO administration), the “Conclusion on pharmacokinetics in mice” value is “Conclusion: compound 1 of the present invention has a high maximum plasma concentration and a high exposure in mice after PO administration”. The AUC(0-t) was 172 ± 18.3 µg·h/mL in data set [4] (setting [6]) and 31 ± 4.24 µg·h/mL in data set [5] (setting [7]). The half-life was 8.33 ± 0.95 h in data set [4] (setting [6]) and 15.4 ± 4.1 h in data set [5] (setting [7]). Also, the Cmax in data set [4] (mouse, whole blood (dried blood spots), female Balb/c mice, PO, 10 mg/kg, DBS samples, read-out: Cmax) was determined as 8240 ± 586 ng/mL; in data set [5] (dog, male Beagle dogs, PO, 2.5 mg/kg, plasma, read-out: Cmax), 1800 ± 127 ng/mL. In addition, the Tmax in data set [4] (mouse, whole blood (dried blood spots), female Balb/c mice, PO, 10 mg/kg, DBS samples, read-out: Tmax) was found to be 1.67 ± 0.58 h; in data set [5] (dog, male Beagle dogs, PO, 2.5 mg/kg, plasma, read-out: Tmax), 1 h. The “Conclusion on pharmacokinetics in dogs” value in data set [5] (dogs after PO administration) is “Conclusion: Compound 1 of the present invention has a high maximum plasma concentration, high exposure, long half-life and good overall PK properties in dogs after PO administration”.

What is called IC50 is the point on the concentration scale where inhibition reaches its midpoint. Read a high IC50 as weaker potency in that assay. The AUC(0-t) is the area under the concentration-time curve up to a stated or last time point. The low end stands for low exposure, the high end for high exposure. What is called half-life is how long it takes for the measured level to halve. A high value points to slow loss. As a reminder, the Cmax is the maximum level reached in the sampled fluid or tissue. As usually defined, the Tmax is the time from dosing to the highest level.

Source of the values: patent US20230312556A1, “ARYLAMIDE COMPOUND, PHARMACEUTICAL COMPOSITION COMPRISING SAME, AND PREPARATION METHOD THEREFOR AND USE THEREOF” (SICHUAN KELUN-BIOTECH BIOPHARMACEUTICAL CO., LTD., priority 2020, published 2023).
